Consider 17 compounds from PubChem BioAssay (NCI).

Common to all, as to experiment: NCI-60 cell line screen, 48 h
Test [1] has as its system SF-295 CNS.
The test system of test [2] is MOLT-4 leukemia.
Test [3] deals with U251 CNS.
Test [4] concerns OVCAR-4 ovarian.
Test [5] deals with UO-31 renal.
Test [6] concerns MDA-MB-435.
For test [7], the system named is OVCAR-5 ovarian.
Test [8] deals with SF-268 CNS.
The subject of test [9] is RXF 393 renal.
The subject of test [10] is SK-MEL-5 melanoma.

Each structure is given as a SMILES string. Values joined by “and” are separate entries in the source; they are usually repeats but may differ in a detail not shown here. Identical values can stand only once.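 Dose response: 5 concentrations. Exposure: 48 h. Format: 96-well plates. Endpoint: linear interpolation; highest concentration if not reached. GI50 is the concentration that inhibits growth by half. TGI: total growth inhibition.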

Turning to `COc1cccc(/C=C/[N+](=O)[O-])c1`, the GI50 was 3.07 µM in [1]; 3.06 µM in [2]; 4.04 µM in test [3]; 15.5 µM in test [4]; 1.68 µM in [5]; 2.69 µM in test [6]. Besides, the GI50 in test [7] was 12.3 µM; in test [8], 5.64 µM; in [9], 1.83 µM; in [10] it was 10.5 µM. Further, the TGI in test [1] stood at 13.4 µM; in [2], 11.9 µM; in [3], 14.8 µM; in test [4] it was 36.9 µM; in test [5] it was 3.4 µM; in test [6] it was 9.28 µM. Further, the TGI in test [7] was 27.6 µM; in test [8] it was 21.4 µM; in [9], 3.39 µM; in test [10] it was 22.5 µM.

For the compound `O=C(O)c1ccc(Oc2nccc(-c3c(-c4ccc(F)cc4)ncn3C3CCNCC3)n2)cc1`, the GI50 in test [1], in [2], in test [3], in [4], in test [5] and in test [6] was more than 25 µM in each case. Further, the GI50 in [7], in test [8], in test [9] and in test [10] was more than 25 µM throughout. Also, the TGI in [1], in test [2], in [3], in [4], in test [5] and in [6] was more than 25 µM each time. Besides, the TGI in test [7], in [8], in test [9] and in [10] was more than 25 µM each time.

Consider `CNC/C(Cl)=N/S(=O)(=O)c1ccc(C)cc1`, for which the TGI in test [1] came to 32.4 µM; in [3], 20.5 µM; in test [4] it was 25.4 µM; in [5] it was 36.6 µM; in test [6], 21.5 µM; in test [7], 47.5 µM. In addition, the TGI in test [8] was more than 100 µM; in test [9], 9.34 µM; in [10] it was 36.7 µM.

As to `CCOC(=O)NC1C2CC(=O)OC(O2)C1OC(C)=O` (stereo unspecified), the TGI in [1], in test [2], in [3], in test [4], in test [5] and in test [6] was more than 100 µM in each case. The TGI in test [7], in [8], in test [9] and in test [10] was more than 100 µM in each case. In addition, the GI50 in test [6] is more than 100 µM.

In the case of `O=C1NC(=O)C(c2ccccc2Cl)=C1Nc1cc(Cl)c(O)c(Cl)c1`, the GI50 in test [1] was more than 25 µM; in [2], 16 µM; in test [3], 13.3 µM; in [4] it was 13.7 µM; in [5], more than 23.4 µM; in test [6], 8.78 µM. Also, the GI50 in test [7] was more than 25 µM; in test [8], 12.1 µM; in test [9], 5.98 µM; in [10] it was 11.7 µM. Moreover, the TGI in test [1], in test [2], in [3], in [4], in test [5] and in test [6] was more than 25 µM throughout. For the same compound, the TGI in test [7] is more than 25 µM; in test [8], more than 25 µM; in test [9], more than 23.5 µM; in test [10], more than 25 µM.

For the compound `C[C@]12CC[C@H](OC3OC(CO)C(O)C(O)C3O)C[C@H]1CC[C@@H]1[C@@H]2CC[C@]2(C)[C@@H](C3=CCOC3=O)CC[C@]12O` (stereo partly specified), the TGI in test [1] was 24.6 µM and > 100 µM and 70.7 µM; in test [2], 50 µM and > 100 µM; in [3] it was 47.2 µM and > 100 µM; in test [4] it was 50 µM and > 100 µM; in [5], 50 µM and > 100 µM; in test [6] it was more than 100 µM. Moreover, the TGI in test [7] was more than 100 µM; in test [8], 50 µM and > 100 µM; in [9], 37 µM and > 100 µM; in [10], 45.7 µM and > 100 µM. The GI50 in [2] was 22.5 µM and > 100 µM; in test [4], > 100 µM and 20.7 µM; in [5] it was more than 100 µM; in [7], more than 100 µM; in test [8], > 100 µM and 27.1 µM; in test [9] it was > 100 µM and 89.2 µM. For the same compound, in test [10], the GI50 was more than 100 µM.

For the compound `CCN(Cc1ccccc1)c1ccc(CO)c(Cl)c1`, the GI50 is 1 µM in test [1]; 29.9 µM in test [2]; 1 µM in test [3]; 0.416 µM in [4]; 6.5 µM in test [5]; 21.4 µM in test [6]. The GI50 in test [7] is 0.164 µM; in test [8] it was 26.7 µM; in test [9], 6.01 µM; in test [10], 5.83 µM. Further, the TGI is more than 56 µM in test [1]; more than 87.2 µM in test [2]; 50.1 µM in [3]; 12.1 µM in test [4]; more than 100 µM in test [5]; 77.8 µM in test [6]. Besides, the TGI in test [7] is 0.593 µM; in [8] it was more than 70.6 µM; in [9], more than 49.7 µM; in test [10] it was 28.7 µM.

For the compound `COc1ccc(-c2cc(-c3cccn3C)c(C#N)c(=O)[nH]2)cc1OC`, the GI50 was more than 100 µM in test [1]; 22.7 µM in test [2]; more than 100 µM in test [3]; more than 100 µM in [4]; 85.1 µM in [5]; more than 100 µM in [6]. Further, the GI50 in [7], in test [8], in test [9] and in test [10] was more than 100 µM each time. The TGI in test [1], in test [2], in [3], in [4], in [5] and in test [6] was more than 100 µM throughout. Moreover, the TGI in [7], in test [8], in test [9] and in test [10] was more than 100 µM each time.

For the compound `COc1ccc(-c2cc(-c3ccc(Cl)cc3)nc(SCCCC(=O)NO)n2)cc1`, the GI50 in test [1] is 0.537 µM; in test [2], 0.796 µM; in [3] it was 0.753 µM; in test [4], 0.849 µM; in [5], 0.237 µM; in test [6], 1.21 µM. Moreover, the GI50 in [7] is 1.37 µM; in test [8], 1.15 µM; in test [9], 0.359 µM; in test [10] it was 1.59 µM. The TGI in [1] is 2.23 µM; in test [2], more than 22 µM; in test [3], more than 22.5 µM; in [4], 11.6 µM; in test [5] it was 1 µM; in [6], 3.19 µM. For the same compound, the TGI in [7] was 6.92 µM; in test [8], 4.27 µM; in [9], 1.52 µM; in [10], 3.31 µM.

Regarding `C/C(=N\Nc1cc(C)c2ccccc2n1)c1ccccn1`, the TGI in test [1] came out at 0.499 µM; in test [2], 0.489 µM; in test [3] it was 1.16 µM; in test [4] it was 2.22 µM; in test [5], 0.903 µM; in test [6], 1.75 µM. Moreover, the TGI in [7] turned out to be 5.26 µM; in test [8], 1.71 µM; in test [9] it was 1.82 µM; in test [10] it was 1.28 µM. Further, the GI50 in [2] was less than 0.0381 µM; in test [3], 0.0368 µM; in test [5] it was less than 0.0377 µM; in test [6], 0.21 µM; in [7] it was 0.0706 µM; in test [8], 0.0433 µM. The GI50 in [9] is 0.29 µM; in test [10], 0.13 µM.

As for `CNC(=S)NC(=O)c1c(Cl)n(C(=O)OC(C)(C)C)c2ccccc12`, the GI50 in [1] was 56.4 µM; in test [3], 53.6 µM; in test [4] it was more than 100 µM; in test [5] it was 73.8 µM; in [6], 44 µM; in test [7], 73.8 µM. For the same compound, the values for the GI50 in [8], in test [9] and in test [10] were 72.8 µM, 48.5 µM and 28.1 µM, respectively. Further, the TGI in test [1], in test [3], in [4], in test [5], in test [6] and in test [7] was more than 100 µM each time. Further, the TGI in test [8], in test [9] and in test [10] was more than 100 µM throughout.

Regarding `O=c1cc(N2CCN(CCCCCOc3cc(O)c4c(=O)cc(-c5ccccc5)oc4c3)CC2)c2ccccc2o1`, the GI50 in test [1] is more than 100 µM; in test [3], more than 100 µM; in test [4], 62.7 µM; in [5], 50.8 µM; in test [6], 47.2 µM; in [7], more than 100 µM. The GI50 was more than 100 µM in test [8], more than 100 µM in test [9] and 28 µM in test [10]. Moreover, the TGI in test [1], in test [3], in test [4], in test [5], in test [6] and in test [7] was more than 100 µM in each case. Also, the TGI in test [8], in test [9] and in test [10] was more than 100 µM in each case.

As to `NC1CCC(Nc2nc(NCc3ccc(-c4ccccc4O)nc3)c3ncn(C4CCCC4)c3n2)CC1` (stereo unspecified), the GI50 was 0.0295 µM in test [1]; less than 0.01 µM in test [2]; 0.0294 µM in test [3]; 0.0759 µM in test [5]; 0.0119 µM in [6]; 0.0322 µM in test [7]. The GI50 in test [8] was less than 0.01 µM; in test [9] it was 0.0144 µM; in test [10], 0.0313 µM. The TGI in [1] is 0.219 µM; in [2] it was 0.213 µM; in test [3], 0.321 µM; in test [5] it was 0.545 µM; in test [6], 1.17 µM; in test [7], 1.38 µM. Moreover, the TGI worked out at 0.344 µM in [8], 0.0356 µM in test [9] and 1.17 µM in test [10].

As for `O=C1O/C(=C\c2ccccc2)N(c2ccccc2)C1=O`, the TGI in test [2], in test [3], in [4], in test [5], in test [6] and in [7] was more than 100 µM in each case. In addition, the TGI in test [8], in test [9] and in [10] was more than 100 µM throughout.

On to `Cc1ccc(NC2=C(Cl)C(=O)N(Cc3ccc(Cl)cc3)C2=O)cc1O`, for which the GI50 in test [1] was 4.04 µM; in test [2], more than 100 µM; in test [3], 4.88 µM; in test [4] it was 25.4 µM; in test [5], 17.6 µM; in test [6], 4.45 µM. For the same compound, the GI50 in test [8] is 5.07 µM; in test [9], 10.4 µM; in test [10], 12.6 µM. For the same compound, the TGI in test [1] is 19.8 µM; in test [2] it was more than 100 µM; in test [3], more than 100 µM; in test [4] it was more than 100 µM; in [5], 69 µM; in [6] it was 26.2 µM. The TGI in [8] is 21.2 µM; in test [9], 36.4 µM; in test [10], 28 µM.

For `O=C1c2ccccc2-c2oc(=O)c3ccccc3c21`, the TGI in [1], in test [2], in test [3], in test [4], in [5] and in test [6] was more than 100 µM in each case. Further, the TGI in [7], in test [9] and in test [10] was more than 100 µM in each case.

Turning to `O=S(=O)(NCCCNc1nccc(-c2c(-c3ccc(F)c(O)c3)nc3sccn23)n1)c1ccc(F)cc1`, the GI50 in test [1] was 2.19 µM; in [2] it was 1.73 µM; in test [3], 3.47 µM; in [5] it was 2.96 µM; in [6], 0.636 µM; in [7], 3.41 µM. The GI50 was 1.53 µM in test [9] and 1.42 µM in [10]. Moreover, the TGI in [1] is 5.27 µM; in test [2], 5.57 µM; in test [3] it was more than 100 µM; in test [5] it was 7.77 µM; in test [6], 3.35 µM; in test [7] it was more than 100 µM. Moreover, the figures for the TGI in [9] and in test [10] were 4.68 µM and 2.8 µM, respectively.
